This assay deals with T1, human ANO6 (Homo sapiens, UniProt Q4KMQ2).
T1 construct: expressed in transfected cells
T1 sequence (Q4KMQ2 1-931 isoform Q4KMQ2-2): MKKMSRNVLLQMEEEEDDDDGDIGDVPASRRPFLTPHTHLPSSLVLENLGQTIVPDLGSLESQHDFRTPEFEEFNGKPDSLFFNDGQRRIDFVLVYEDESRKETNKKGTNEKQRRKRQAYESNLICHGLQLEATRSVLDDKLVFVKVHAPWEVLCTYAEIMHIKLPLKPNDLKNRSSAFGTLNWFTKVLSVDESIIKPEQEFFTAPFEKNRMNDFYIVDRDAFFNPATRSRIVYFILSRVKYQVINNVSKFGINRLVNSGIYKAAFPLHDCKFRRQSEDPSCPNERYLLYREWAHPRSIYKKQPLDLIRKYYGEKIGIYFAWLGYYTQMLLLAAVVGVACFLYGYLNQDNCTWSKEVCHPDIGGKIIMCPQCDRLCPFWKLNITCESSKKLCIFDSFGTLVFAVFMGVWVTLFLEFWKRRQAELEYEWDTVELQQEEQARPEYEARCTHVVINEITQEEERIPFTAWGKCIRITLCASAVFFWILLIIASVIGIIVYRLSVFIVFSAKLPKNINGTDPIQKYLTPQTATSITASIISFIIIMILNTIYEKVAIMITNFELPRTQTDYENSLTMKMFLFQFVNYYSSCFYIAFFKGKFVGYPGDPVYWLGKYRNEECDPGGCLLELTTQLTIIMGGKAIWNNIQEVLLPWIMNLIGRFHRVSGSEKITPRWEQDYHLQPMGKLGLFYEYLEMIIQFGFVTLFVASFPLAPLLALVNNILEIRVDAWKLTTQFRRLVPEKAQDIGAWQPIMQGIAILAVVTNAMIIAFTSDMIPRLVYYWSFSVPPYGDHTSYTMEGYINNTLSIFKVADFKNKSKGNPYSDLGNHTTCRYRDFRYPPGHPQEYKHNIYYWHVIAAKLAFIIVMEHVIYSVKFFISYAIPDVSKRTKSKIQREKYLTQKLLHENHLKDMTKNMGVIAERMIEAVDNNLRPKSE
The assay is described as follows: LACT C2 assay (phosphatidylserine scramblase function assay). The following applies: FRT cells expressing human ANO6, 10 μM ionomycin; for inhibition at 0.1 µM: test compound 100 nM, read-out: Inhibition Level 100 nM; for inhibition at 1 µM: test compound 1 μM, read-out: Inhibition Level 1 μM. It is filed as cell-based. The source says:
Phosphatidylserine Scramblase Function Assay
1. Materials and Instruments
Ionomycin (Alomonelab, cat. #I-700), DAPI (Sigma-Aldrich, cat. #D8417), paraformaldehyde (Biosesang, cat. #P2031), Lionheart FX Automated Microscope (BioTek, Winooski), Python3 (Python Software Foundation), and OpenCV (Open Source Computer Vision Library).
Fisher rat thyroid (FRT) cells stably expressing human ANO6 (GenBank accession no. NP_001191732.1, provided by J. H. Nam, Dongguk University College of Medicine, Korea) were grown in DMEM/Ham's F-12 (1:1) medium with 10% FBS, 2 mM L-549 glutamine, 100 units/mL penicillin, and 100 μg/mL streptomycin at 37° C. and 5% CO2.
FRT cells stably expressing human ANO6 were plated in 96 well black-walled microplates at a density of 2×10^4 cells/well. After 24 hours incubation, cells were treated with the test compound (dissolved in DMSO) were treated to each well to become 1% v/v DMSO for 10 minutes, then 10 μM of ionomycin was applied. Finally each well was washed with 200 μL PBS after 10 minutes. After washout, the phosphatidylserine and nuclei were stained with PBS containing 500 nM Lactadherin-C2 (Lact-C2)-GFP, then cells were washed with 200 μL PBS. Cells were fixed with 4% paraformaldehyde for 5 minutes at room temperature. For morphological analysis, some cells were stained with fluorescently labelled DAPI for 15 minutes at room temperature. Quantitative analysis of the fluorescence intensity of Lact-C2-GFP was performed with Python3 and OpenCV. OpenCV was used to remove background and noise pixels, and the sum of all remaining pixel values was used to evaluate the fluorescence intensity of Lact-C2-GFP.
The inhibitory activity (%) of each of the test compounds was obtained by the following steps. In each row of 96 well plate, the inhibitory activity of each of the test compounds was calculated as percentages. The inhibitory activity of a negative control group to which neither compounds nor ionomycin were treated was set to be 100%, and the inhibitory activity of a positive control group to which ionomycin was treated and compounds were not treated was set to be 0%. The assay was performed in triplicate, and the results were averaged.

Each structure is given as a SMILES string. Some results are limits rather than exact numbers.

Take `Cc1ccc(CCNC(=O)c2cccc(Nc3ncc(-c4cccc(F)c4)cn3)c2)o1` [Compound 151, 3-((5-(3-fluorophenyl)pyrimidin-2-yl)amino)-N-(2-(5-methylfuran-2-yl)ethyl)benzamide]: the inhibition at 0.1 µM was under 30% and the inhibition at 1 µM was under 30%.
For the molecule `Cc1c(C2CC2NC(=O)c2cccc(Nc3ncc(-c4ccccc4)cn3)c2)cnn1C` (stereo not drawn) [Compound 152, N-(2-(1,5-dimethyl-1H-pyrazol-4-yl)cyclopropyl)-3-((5-phenylpyrimidin-2-yl)amino)benzamide], the inhibition at 0.1 µM is under 30% and the inhibition at 1 µM is under 30%.
For `Cc1ccc(CCNC(=O)c2cccc(Nc3ncc(-c4ccccc4)cn3)c2)o1` [Compound 153, N-(2-(5-methylfuran-2-yl)ethyl)-3-((5-phenylpyrimidin-2-yl)amino)benzamide], the inhibition at 0.1 µM is under 30% and the inhibition at 1 µM was under 30%.
In the case of `O=C(N[C@@H]1C[C@H]1c1ccccc1)c1cncc(Nc2ncc(-c3ccccc3)cn2)c1` [Compound 156, N-((1R,2S)-2-phenylcyclopropyl)-5-((5-phenylpyrimidin-2-yl)amino)nicotinamide], the inhibition at 0.1 µM was under 30% and the inhibition at 1 µM lay within 30 to 60%.
The matching figures for `O=C(N[C@@H]1C[C@H]1c1ccccc1)c1cccc(Nc2ncc(-c3ccoc3)cn2)c1` [Compound 157, 3-((5-(furan-3-yl)pyrimidin-2-yl)amino)-N-((1R,2S)-2-phenylcyclopropyl)benzamide]: 30 to 60% and at least 60%.
The matching figures for `O=C(Nc1cccc(F)c1)c1cccc(Nc2nnc(-c3ccccc3)o2)c1` [Compound 158, N-(3-fluorophenyl)-3-((5-phenyl-1,3,4-oxadiazol-2-yl)amino)benzamide]: under 30% and under 30%.
The matching figures for `O=C(N[C@@H]1C[C@H]1c1ccccc1)c1cccc(Nc2nnc(-c3ccccc3)o2)c1` [Compound 159, 3-((5-phenyl-1,3,4-oxadiazol-2-yl)amino)-N-((1R,2S)-2-phenylcyclopropyl)benzamide]: under 30% and 30 to 60%.
For the molecule `O=C(Nc1cccc(F)c1)c1cccc(Nc2ccc(-c3ccncc3)cc2)c1` [Compound 162, N-(3-fluorophenyl)-3-((4-(pyridin-4-yl)phenyl)amino)benzamide], the inhibition at 0.1 µM is under 30% and the inhibition at 1 µM was at least 60%.
In the case of `O=C(N[C@@H]1C[C@H]1c1ccccc1)C12CC3CC(CC(Nc4ccc(-c5ccccc5)nn4)(C3)C1)C2` [Compound 166, N-((1R,2S)-2-phenylcyclopropyl)-3-((6-phenylpyridazin-3-yl)amino)adamantane-1-carboxamide], the inhibition at 0.1 µM was under 30%.
For `O=C(N[C@@H]1C[C@H]1c1ccccc1)c1cc(Nc2ncc(-c3ccccc3)cn2)ccn1` [Compound 167, N-((1R,2S)-2-phenylcyclopropyl)-4-((5-phenylpyrimidin-2-yl)amino)picolinamide], the inhibition at 0.1 µM is under 30%.
On the same count and under the same terms, to `O=C(N[C@@H]1C[C@H]1c1ccccc1)C12CCC(Nc3ccc(-c4ccccc4)nn3)(CC1)C2` [Compound 168, (1s,4s)-N-((1R,2S)-2-phenylcyclopropyl)-4-((6-phenylpyridazin-3-yl)amino)bicyclo[2.2.1]heptane-1-carboxamide] belongs under 30%; to `CNc1cccc(NC(=O)c2cccc(Nc3ncc(-c4cccc(F)c4)cn3)c2)c1` [Compound 177, 3-((5-(3-fluorophenyl)pyrimidin-2-yl)amino)-N-(3-(methylamino)phenyl)benzamide], under 30%; to `O=C(N[C@@H]1C[C@H]1c1ccccc1)c1ccnc(Nc2ncc(-c3ccccc3)cn2)c1` [Compound 178, N-((1R,2S)-2-phenylcyclopropyl)-2-((5-phenylpyrimidin-2-yl)amino)isonicotinamide], 30 to 60%.

The values are drawn from US20230080054A1 (ILDONG PHARMACEUTICAL CO., LTD., priority 2021, published 2023).
